Reference: patent publication US20040171603A1, “Novel therapeutic targets for the treatment of mycobacterial infections and compounds useful therefor” (priority 2001, published 2004)
Like-named read-outs stand apart in the source and are kept apart here.

Columns and labels:
[1] = biological target: T1, mycobacterial protein kinase G (PknG) (Mycobacterium tuberculosis, UniProt P9WI73); test: biochemical
T1 construct: GST; made in house; host or cells: E. coli BL21

[2] = system: M. smegmatis expressing wildtype PknG in murine macrophage cell line RAW; assay type: cell-based, Mycobacterium smegmatis; conditions: FIG. 2
[3] = read-out: IC50 value, inhibition of serine/threonine protein kinase G of M. tuberculosis
[4] = ATP near Km, read-out: Inhibition of PknG (IC50, [μM])
[5] = ranging from about 2 μM and more than 30 μM over the listed compounds, read-out: IC50 values, inhibition of PknG (span stated for the group)

T1 sequence (P9WI73 whole entry): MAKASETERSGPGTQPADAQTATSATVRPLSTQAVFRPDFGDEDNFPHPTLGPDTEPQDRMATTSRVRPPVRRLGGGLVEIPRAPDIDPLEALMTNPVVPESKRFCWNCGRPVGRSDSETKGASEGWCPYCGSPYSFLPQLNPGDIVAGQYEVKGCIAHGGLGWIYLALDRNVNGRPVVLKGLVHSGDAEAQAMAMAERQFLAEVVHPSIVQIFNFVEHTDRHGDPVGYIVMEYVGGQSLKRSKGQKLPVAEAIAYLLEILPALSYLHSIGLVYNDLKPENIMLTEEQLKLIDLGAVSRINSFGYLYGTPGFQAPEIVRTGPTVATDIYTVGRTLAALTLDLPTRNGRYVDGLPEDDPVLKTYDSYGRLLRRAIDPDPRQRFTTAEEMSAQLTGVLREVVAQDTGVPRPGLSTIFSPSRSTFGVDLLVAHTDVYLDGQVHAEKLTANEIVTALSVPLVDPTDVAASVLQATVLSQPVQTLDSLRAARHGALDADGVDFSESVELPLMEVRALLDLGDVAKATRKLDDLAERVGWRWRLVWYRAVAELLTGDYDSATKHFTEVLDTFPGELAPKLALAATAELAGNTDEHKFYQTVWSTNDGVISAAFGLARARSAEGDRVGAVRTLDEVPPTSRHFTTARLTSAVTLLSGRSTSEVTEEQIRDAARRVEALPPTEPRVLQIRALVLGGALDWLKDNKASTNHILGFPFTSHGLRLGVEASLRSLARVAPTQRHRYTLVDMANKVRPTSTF

| Compound | IC50 [1, 3] [µM] | resistance to macrophage degradation of wildtype PknG-expressing M. smegmatis ([2]; 1 μM or 10 μM) | clearance of PknG-expressing M. smegmatis in macrophages ([2]; 10 μM, 24 hours postinfection, RAW cells) | IC50 [1, 4] [µM] | IC50 [1, 5] [µM] |
| --- | --- | --- | --- | --- | --- |
| NC(=O)c1c(NC(=O)C2CC2)sc2c1CCCC2 [Compound 237, 2-(Cyclopropanecarbonyl-amino)-4,5,6,7-tetrahydro-benzo[b]thiophene-3-carboxylic acid amide] | 0.2 | overcomes the resistance to macrophage degradation | as efficient as observed with the mutant or vector control transformants | – | – |
| NC(=O)c1c(NC(=O)Cc2ccc([N+](=O)[O-])cc2)sc2c1CCCC2 [Compound 238, 2-[2-(4-Nitrophenyl)-acetylamino]-4,5,6,7-tetrahydro-benzo[b]thiophene-3-carboxylic acid amide] | – | – | – | ~5 | ≥ 2 |
| CC1CCc2c(sc(NC(=O)Cn3cnc([N+](=O)[O-])n3)c2C(N)=O)C1 (centres unmarked) [Compound 239, 6-Methyl-2-[2-(3-nitro-[1,2,4]triazol-1-yl)-acetylamino]-4,5,6,7-tetrahydro-benzo[b]thiophene-3-carboxylic acid amide] | – | – | – | > 30 | ≥ 2 |
| O=C(Nc1sc2c(c1C(=O)NCCO)CCCC2)c1ccco1 [Compound 240, Furan-2-carboxylic acid [3-(2-hydroxy-ethylcarbamoyl)-4,5,6,7-tetrahydro-benzo[b]thiophen-2-yl]-amide] | – | – | – | 16 | ≥ 2 |
| CC(=O)Nc1sc2c(c1C(N)=O)CCCC2 [Compound 250, 2-Acetylamino-4,5,6,7-tetrahydrobenzo[b]thiophene-3-carboxylic acid amide] | – | – | – | > 30 | ≥ 2 |
| O=C(O)c1c(NC(=O)C2CC2)sc2c1CCCC2 [Compound 252, 2-(Cyclopropanecarbonyl-amino)-4,5,6,7-tetrahydro-benzo[b]thiophene-3-carboxylic acid] | – | – | – | ~19 | ≥ 2 |
| CC(C)C(=O)Nc1sc2c(c1C(N)=O)CCCC2 [Compound 255, 2-Isobutyrylamino-4,5,6,7-tetrahydrobenzo[b]thiophene-3-carboxylic acid amide] | – | – | – | ~3 | ≥ 2 |
| CCOC(=O)c1c(NC(=O)C(C)C)sc2c1CCCC2 [Compound 256, 2-Isobutyrylamino-4,5,6,7-tetrahydrobenzo[b]thiophene-3-carboxylic acid ethyl ester] | – | – | – | > 30 | ≥ 2 |
| NC(=O)c1c(NC(=O)C2CCC2)sc2c1CCCC2 [Compound 266, 2-(Cyclobutanecarbonyl-amino)-4,5,6,7-tetrahydrobenzo[b]thiophene-3-carboxylic acid amide] | – | – | – | ~3 | ≥ 2 |
| CCC(C)C(=O)Nc1sc2c(c1C(N)=O)CCCC2 (centres unmarked) [Compound 267, 2-(2-Methyl-butyrylamino)-4,5,6,7-tetrahydrobenzo[b]thiophene-3-carboxylic acid amide] | – | – | – | ~15 | ≥ 2 |
| CC1CCc2c(sc(NC(=O)C3CC3)c2C(N)=O)C1 (centres unmarked) [Compound 270, 2-(Cyclopropanecarbonyl-amino)-6-methyl-4,5,6,7-tetrahydrobenzo[b]thiophene-3-carboxylic acid amide] | 0.9 | – | – | – | – |
| CC(=O)Nc1sc2c(c1C(N)=O)CCC(C)C2 (centres unmarked) [Compound 284, 2-Acetylamino-6-methyl-4,5,6,7-tetrahydrobenzo[b]thiophene-3-carboxylic acid amide] | – | – | – | ~12 | ≥ 2 |
| NC(=O)c1c(NC(=O)C2CC2)sc2c1CCSC2 [Compound 286, 2-(Cyclopropanecarbonyl-amino)-4,7-dihydro-5H-thieno[2,3-c]-thiopyran-3-carboxylic acid amide] | – | – | – | ~2 | ≥ 2 |
